Non-standard residues stand in square brackets, D forms with d. Residues, ends and D or L forms follow the SMILES beside them. *: point of attachment. Bip = N[C@@H](Cc1ccc(-c2ccccc2)cc1)C(=O)O; NMeT = CN[C@H](C(=O)O)[C@@H](C)O; OBn = c1ccc(CO*)cc1; Bn = c1ccc(C*)cc1

For one test, the target named is T1, Solute carrier family 15 member 1 (Homo sapiens, UniProt P46059).
T1 sequence (P46059 whole entry): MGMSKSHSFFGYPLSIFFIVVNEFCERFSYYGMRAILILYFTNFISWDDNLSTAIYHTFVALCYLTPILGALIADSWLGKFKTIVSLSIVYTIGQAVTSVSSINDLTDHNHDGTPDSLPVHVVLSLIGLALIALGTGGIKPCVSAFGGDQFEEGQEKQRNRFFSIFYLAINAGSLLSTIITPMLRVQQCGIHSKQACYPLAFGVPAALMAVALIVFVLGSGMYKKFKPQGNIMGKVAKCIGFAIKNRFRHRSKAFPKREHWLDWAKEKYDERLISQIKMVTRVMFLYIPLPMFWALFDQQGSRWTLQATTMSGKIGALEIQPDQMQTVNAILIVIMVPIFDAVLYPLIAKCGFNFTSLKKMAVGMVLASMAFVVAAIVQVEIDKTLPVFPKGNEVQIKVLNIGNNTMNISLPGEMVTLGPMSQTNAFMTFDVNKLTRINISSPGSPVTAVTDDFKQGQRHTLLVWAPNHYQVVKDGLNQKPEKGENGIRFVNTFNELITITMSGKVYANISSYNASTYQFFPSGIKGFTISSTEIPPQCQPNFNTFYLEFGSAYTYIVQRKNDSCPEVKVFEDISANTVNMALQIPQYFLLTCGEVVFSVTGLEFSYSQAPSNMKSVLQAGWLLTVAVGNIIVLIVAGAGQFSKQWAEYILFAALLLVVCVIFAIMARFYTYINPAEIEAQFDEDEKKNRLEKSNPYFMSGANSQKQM
Briefly: Binding affinity against membrane transport protein PEPT1 in human Caco-2 cells. In kind it is cell-based.
Details: not given
`CC(C)C[C@@H](N)C(=O)NCC(=O)NCC(=O)O` (H-[dL]-Gly-Gly-OH): the inhibition constant (Ki) came to 25000 µM.

Regarding `CC(C)C[C@H](NC(=O)[C@H]([C@@H](C)O)N(C)C(=O)[C@@H](N)CC(C)C)C(=O)O` (H-Leu-[NMeT]-Leu-OH), the affinity corresponds to a Ki of 110 µM.

Molecule `NCCCC[C@H](NC(=O)[C@@H](N)CC(=O)O)C(=O)O` (H-Asp-Lys-OH) returned an inhibitory constant (Ki) of 860 µM.

`C[C@@H](NC(=O)[C@@H](N)Cc1ccc(O)cc1)C(=O)NCC(=O)O` (H-Tyr-[dA]-Gly-OH) gave an inhibition constant (Ki) of 14000 µM.

On to `C[C@H](N)C(=O)N[C@H](Cc1ccccc1)C(=O)N[C@@H](C)C(=O)O`, for which the affinity, expressed as Ki, was 19000 µM. The Ki values of the last two molecules are within 1.5-fold of each other.

`O=C(O)[C@@H]1CCCN1C(=O)[C@@H]1CCCN1` (H-Pro-Pro-OH): affinity was put at a Ki of 1200 µM.

For the molecule `CC[C@H](C)[C@H](NC(=O)[C@@H]1CCCN1C(=O)[C@@H](N)Cc1ccc(O)cc1)C(=O)O` (H-Tyr-Pro-Ile-OH), the inhibitory constant (Ki) is 250 µM.

In turn, `CSCC[C@H](NC(=O)[C@H](CCSC)NC(=O)[C@@H](N)CCSC)C(=O)O` (stereo in doubt; 10) registered a Ki of 100 µM.

Take `CC(C)C[C@H](N)C(=O)NCC(=O)NCC(=O)O` (H-Leu-Gly-Gly-OH): the inhibitory constant (Ki) is 390 µM.

For the molecule `C[C@H](N)C(=O)N[C@@H](CCCCN)C(=O)O`, the affinity corresponds to a Ki of 210 µM.

On to `CO[C@@]1(NC(=O)Cc2cccs2)C(=O)N2C(C(=O)O)=C(COC(N)=O)CS[C@@H]21` [CEFOXITIN], for which the Ki turned out to be 10000 µM.

Take `Cc1onc(-c2ccccc2Cl)c1C(=O)N[C@@H]1C(=O)N2[C@@H]1SC(C)(C)[C@@H]2C(=O)O` [CLOXACILLIN]: the affinity corresponds to a Ki of 2500 µM.

For the molecule `Cc1nnc(SCC2=C(C(=O)O)N3C(=O)[C@@H](NC(=O)Cn4cnnn4)[C@H]3SC2)s1` [CEFAZOLIN], the Ki is above 30000 µM.

As for `CC(C)C[C@H](N)C(=O)N1CCC[C@H]1C(=O)N[C@@H](CCCN=C(N)N)C(=O)O` (H-Leu-Pro-Arg-OH), the affinity corresponds to a Ki of 100 µM.

On to `C[C@H](N)C(=O)N[C@@H](C)C(=O)O` (stereo in doubt; 110), for which the Ki turned out to be 140 µM.

In the case of `N[C@@H](Cc1ccc(O)cc1)C(=O)NCC(=O)NCC(=O)O` (H-Tyr-Gly-Gly-OH), the affinity corresponds to a Ki of 350 µM. Compared with the last molecule, the Ki is about 2.5-fold higher.

As to `NCC(=O)N[C@@H](Cc1c[nH]cn1)C(=O)O` (H-Gly-His-OH), the inhibition constant Ki was 4100 µM.

As to `CC1=C(C(=O)O)N2C(=O)[C@@H](NC(=O)[C@H](N)C3=CCC=CC3)[C@H]2SC1` [CEPHRADINE], the affinity, expressed as Ki, was 9800 µM.

As to `N[C@@H](Cc1c[nH]c2ccccc12)C(=O)NCC(=O)N[C@@H](Cc1ccc(O)cc1)C(=O)O`, the Ki came to 240 µM.

Take `CC[C@H](C)[C@H](N)C(=O)N[C@@H](Cc1ccc(O)cc1)C(=O)O` (H-Ile-Tyr-OH): the inhibition constant Ki turned out to be 120 µM. Against the preceding molecule, the Ki is about 2-fold lower.

`CC(C)C[C@H](NC(=O)[C@H](Cc1ccccc1)NC(=O)[C@H](C)N)C(=O)O` (H-Ala-Phe-Leu-OH) had a Ki of 100 µM.

Consider `CC(C)[C@H](NC(=O)[C@H](N)Cc1ccc(O)cc1)C(=O)NCC(=O)O` (H-[dY]-Val-Gly-OH), for which the affinity, expressed as Ki, was 14000 µM. Compared with the last molecule, the Ki is about 140-fold higher.

Molecule `C[C@H](N)C(=O)N[C@H](CCCCN)C(=O)O` registered an inhibition constant (Ki) above 30000 µM.

For the molecule `N[C@@H](CCC(=O)O)C(=O)N[C@@H](Cc1ccccc1)C(=O)N[C@@H](Cc1ccc(O)cc1)C(=O)O` (H-Glu-Phe-Tyr-OH), the inhibition constant (Ki) was found to be 200 µM.

For the molecule `C[C@H](N)C(=O)N[C@@H](C)C(=O)N[C@@H](C)C(=O)O`, the affinity corresponds to a Ki of 180 µM.

`CC(C)C[C@H](NC(=O)[C@H](CC(C)C)NC(=O)[C@@H](N)Cc1ccccc1)C(=O)O` (H-Phe-Leu-Leu-OH) returned a Ki of 140 µM.

As for `C[C@H](NC(=O)[C@@H](N)Cc1ccc(OCc2ccccc2)cc1)C(=O)O`, affinity was put at a Ki of 90 µM.

Turning to `C[C@H](N)C(=O)N[C@H](C)C(=O)N[C@@H](C)C(=O)O`, the inhibitory constant (Ki) is 17000 µM.

As for `CC1(C)S[C@@H]2[C@H](NC(=O)COc3ccccc3)C(=O)N2[C@H]1C(=O)O` [PENICILLIN V], the affinity, expressed as Ki, was 21000 µM.

As for `C[C@H](N)C(=O)N1CCCC1C(=O)O` (single isomer, unassigned), the inhibition constant (Ki) came out at 15000 µM. The Ki values of the last two molecules are within 1.5-fold of each other.

For `C[C@H](NC(=O)[C@H](Cc1ccccc1)NCc1ccccc1)C(=O)O`, the Ki worked out at 20 µM.

On to `[N-]=[N+]=N[C@H](C(=O)NC1C(=O)N2C(C(=O)O)=CCSC12)c1ccccc1` (stereo partly specified), for which the inhibition constant Ki worked out at 15000 µM.

In turn, `CCN1CCN(C(=O)N[C@@H](C(=O)N[C@@H]2C(=O)N3[C@@H]2SC(C)(C)[C@@H]3C(=O)O)c2ccccc2)C(=O)C1=O` [PIPERACILLIN] gave a Ki above 30000 µM.

On to `O=C(O)CNC(=O)CNC(=O)[C@@H]1CCCN1` (H-Pro-Gly-Gly-OH), for which the Ki was determined as 16000 µM.

As for `C[C@H](N)C(=O)N[C@@H](C)C(=O)N[C@H](C)C(=O)O`, the Ki is 8300 µM.

Molecule `CC[C@H](C)[C@H](N)C(=O)N[C@H](C(=O)N[C@@H](Cc1ccc(O)cc1)C(=O)O)C(C)C` (H-Ile-Val-Tyr-OH) displayed a Ki of 200 µM.

The molecule `C[C@@H](N)C(=O)N1CCC[C@H]1C(=O)O` showed a Ki of 5000 µM.

`C[C@H](NC(=O)[C@H](C)NOC(=O)[C@@H](C)N)C(=O)O` had a Ki of 7900 µM.

The molecule `C[C@H](NC(=O)[C@@H](N)Cc1c[nH]c2ccccc12)C(=O)O` (H-Trp-Ala-OH) had an inhibitory constant (Ki) of 160 µM.

`C[C@H](NC(=O)[C@@H](N)CCCCN)C(=O)O` (H-Lys-Ala-OH): affinity was put at a Ki of 340 µM.

As to `CC(C)C[C@H](N)C(=O)N1CCC[C@H]1C(=O)O` (H-Leu-Pro-OH), the Ki came to 180 µM. This Ki is about 1.9-fold lower than that of the molecule before.

Molecule `C[C@H](NC(=O)[C@@H](N)CCCCN)C(N)=O` (H-Lys-Ala-NH2) yielded a Ki of 6400 µM.

Molecule `C[C@H](N)C(=O)NC(=O)C1CCCCC1` had an inhibition constant (Ki) of 1500 µM.

Regarding `NCCCC[C@H](N)C(=O)N[C@@H](CCC(=O)O)C(=O)O` (H-Lys-Glu-OH), the inhibition constant Ki turned out to be 1300 µM. This Ki and that of the molecule before are within 1.5-fold of each other.

As for `C[C@H](N)C(=O)N[C@@H](C)C(=O)O` (stereo in doubt; 47), the Ki was determined as 2100 µM.

The molecule `O=C(O)C[C@H](NC(=O)[C@@H]1CCCN1)C(=O)O` (stereo in doubt; 64) yielded an inhibition constant Ki of 9800 µM.

`CC(C)C[C@H](N)C(=O)N[C@@H](CCCN=C(N)N)C(=O)N1CCC[C@H]1C(=O)O` (H-Leu-Arg-Pro-OH) registered an inhibition constant Ki of 300 µM. Against the preceding molecule, the Ki is about 33-fold lower.

Take `C[C@H](NC(=O)[C@@H](N)CC(=O)OCc1ccccc1)C(=O)O` (H-Asp(OBn)-Ala-OH): the affinity corresponds to a Ki of 90 µM.

Consider `C[C@H](NC(=O)[C@@H](N)Cc1ccc(-c2ccccc2)cc1)C(=O)O` (H-[Bip]-Ala-OH), for which the Ki was 10 µM.

`CC(C)C[C@H](NC(=O)[C@@H]1CCCN1C(=O)[C@H](C)N)C(=O)O` (H-Ala-Pro-Leu-OH) yielded an inhibitory constant (Ki) of 150 µM.

The molecule `C[C@@H](N)C(=O)N[C@@H](CCCCN)C(=O)O` yielded an inhibition constant (Ki) of 7000 µM.

For `Cc1onc(-c2c(F)cccc2Cl)c1C(=O)N[C@@H]1C(=O)N2[C@@H]1SC(C)(C)[C@@H]2C(=O)O` [FLOXACILLIN], the affinity, expressed as Ki, was 3200 µM.

`NCCCC[C@H](NC(=O)[C@@H](N)CCC(=O)O)C(=O)O` (H-Glu-Lys-OH) displayed a Ki of 510 µM.

`C[C@@H](N)C(=O)N[C@H](CCCCN)C(=O)O` came in with an inhibition constant Ki above 30000 µM.

With `C[C@@H](O)[C@H](N)C(=O)N[C@@H](CCCCN)C(=O)N[C@@H](Cc1ccc(O)cc1)C(=O)O` (H-Thr-Lys-Tyr-OH), the inhibition constant (Ki) was 1100 µM.

Molecule `NCCCC[C@H](NC(=O)[C@H](Cc1ccccc1)NC(=O)[C@@H]1CCCN1)C(=O)O` (H-Pro-Phe-Lys-OH) came in with an inhibition constant Ki of 2000 µM.

Regarding `CC(C)C[C@H](N)C(=O)N[C@@H](C)C(=O)N[C@@H](CCCNC(=N)N)C(=O)O` (H-Leu-Ala-Arg-OH), the inhibitory constant (Ki) worked out at 110 µM. This Ki lies about 18-fold lower than the previous one.

Regarding `C[C@H](NC(=O)[C@@H](N)COCc1ccccc1)C(=O)O` (H-Ser(Bn)-Ala-OH), the Ki came to 90 µM.

For `COCC1=C(C(=O)O)N2C(=O)[C@@H](NC(=O)/C(=N\OC)c3csc(N)n3)[C@H]2SC1` [CEFPODOXIME], the Ki is above 30000 µM.

The molecule `N=C(N)NCCC[C@H](NC(=O)[C@@H]1CCCN1)C(=O)O` (H-Pro-Arg-OH) displayed a Ki of 2500 µM. This lies in the millimolar range.

Take `N[C@@H](Cc1c[nH]c2ccccc12)C(=O)N[C@@H](Cc1c[nH]c2ccccc12)C(=O)N[C@@H](Cc1c[nH]c2ccccc12)C(=O)O` (H-Trp-Trp-Trp-OH): the affinity corresponds to a Ki of 170 µM.

`N[C@@H](Cc1ccc(O)cc1)C(=O)N[C@@H](Cc1ccccc1)C(=O)O` (H-Tyr-Phe-OH) came in with a Ki of 140 µM. This Ki and that of the molecule before are within 1.5-fold of each other.

`CSCC[C@H](NC(=O)[C@H](CCSC)NC(=O)[C@@H](N)CCSC)C(=O)O` (stereo in doubt; 119) displayed a Ki of 520 µM. Compared with the last molecule, the Ki is about 3.7-fold higher.

Consider `CC(C)C[C@H](NC(=O)[C@H](C)NC(=O)[C@@H](N)C(C)C)C(=O)O` (H-Val-Ala-Leu-OH), for which the affinity, expressed as Ki, was 140 µM.

The same test, now with this note: caco-2.
Consider `O=C(O)C[C@H](NC(=O)[C@@H]1CCCN1)C(=O)O` (stereo in doubt; 121), for which the affinity, expressed as Ki, was 9800 µM.

`CC(C)[C@H](N)C(=O)N1CCC[C@H]1C(=O)N1CCC[C@@H]1C(=O)O` yielded a Ki of 4300 µM. This Ki lies about 2.3-fold lower than the previous one.
